Earlier results on 1 substance are cited in patent publication EP0077028B1, “Renin inhibitory peptides” (Merck & Co., Inc., priority 1981, dated 1987).

The data set deals with hog renin. The following applies: after the injection of hog renin into nephrectomized rats.

As to pepstatin, the “blood pressure in vivo” value is “reduce blood pressure”.
